Test [1] has as its target T1, Delta-type opioid receptor (Homo sapiens, UniProt P41143). Nature of the test: Compound was evaluated for binding affinity towards Opioid receptor delta 1 by displacing 125 I-deltorphin II.
Test [2] addresses Kappa-type opioid receptor (Homo sapiens, UniProt P41145). Put plainly: Compound was evaluated for binding affinity towards Opioid receptor kappa 1 by displacing 125 I-DPDYN.
In the next test the target is Mu-type opioid receptor (Homo sapiens, UniProt P35372). Nature of the test: Compound was evaluated for binding affinity towards Opioid receptor mu 1 by displacing 125 I-FK-33824.
Test [3] deals with Opioid receptors; mu & delta (Homo sapiens) (UniProt P41143+P35372). Put plainly: Ratio of binding affinity of compound to mu receptor compared to that of delta receptor (Mu/Delta). The test is classed as protein assay.
The target of test [4] is T1, Delta-type opioid receptor. Nature of the test: Effective concentration for agonistic activity towards delta opioid receptor was determined by [35S]GTP-gamma-S functional assay. For orientation: GTPγS is a poorly hydrolysed GTP analogue; its binding reports G protein activation.
Test [5] addresses T1, Delta-type opioid receptor. Put plainly: Compound was tested for its ability to block the effect of selective delta opioid agonist SNC-80 in the functional assay.

Non-standard residues stand in square brackets, D forms with d. Residues, ends and D or L forms follow the SMILES beside them. Dmt = Cc1cc(O)cc(C)c1C[C@H](N)C(=O)O; Tic = O=C(O)[C@@H]1Cc2ccccc2CN1

Chain of Kappa-type opioid receptor (P41145 whole entry): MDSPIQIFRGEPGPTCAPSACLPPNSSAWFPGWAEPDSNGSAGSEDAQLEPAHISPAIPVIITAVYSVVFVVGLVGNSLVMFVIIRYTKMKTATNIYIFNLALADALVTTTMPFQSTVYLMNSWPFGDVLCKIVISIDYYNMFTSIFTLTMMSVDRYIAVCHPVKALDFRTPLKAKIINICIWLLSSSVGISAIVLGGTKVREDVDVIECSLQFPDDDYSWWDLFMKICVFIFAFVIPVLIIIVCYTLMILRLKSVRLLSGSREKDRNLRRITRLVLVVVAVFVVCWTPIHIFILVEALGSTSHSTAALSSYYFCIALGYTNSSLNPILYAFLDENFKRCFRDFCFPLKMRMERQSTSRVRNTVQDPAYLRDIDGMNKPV
Chain of Opioid receptors; mu & delta (Homo sapiens) (P35372 whole entry, looked up): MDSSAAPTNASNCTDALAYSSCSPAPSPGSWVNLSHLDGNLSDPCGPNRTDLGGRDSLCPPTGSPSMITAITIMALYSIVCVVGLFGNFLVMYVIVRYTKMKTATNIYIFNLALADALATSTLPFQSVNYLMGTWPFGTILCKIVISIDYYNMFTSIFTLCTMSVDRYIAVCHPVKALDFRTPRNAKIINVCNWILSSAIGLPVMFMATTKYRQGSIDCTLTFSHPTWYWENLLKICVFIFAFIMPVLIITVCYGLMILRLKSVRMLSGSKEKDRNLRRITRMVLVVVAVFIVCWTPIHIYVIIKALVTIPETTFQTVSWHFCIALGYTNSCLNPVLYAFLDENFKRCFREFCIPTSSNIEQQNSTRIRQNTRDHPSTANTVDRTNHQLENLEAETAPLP
Chain of Opioid receptors; mu & delta (Homo sapiens) (P41143 whole entry, looked up): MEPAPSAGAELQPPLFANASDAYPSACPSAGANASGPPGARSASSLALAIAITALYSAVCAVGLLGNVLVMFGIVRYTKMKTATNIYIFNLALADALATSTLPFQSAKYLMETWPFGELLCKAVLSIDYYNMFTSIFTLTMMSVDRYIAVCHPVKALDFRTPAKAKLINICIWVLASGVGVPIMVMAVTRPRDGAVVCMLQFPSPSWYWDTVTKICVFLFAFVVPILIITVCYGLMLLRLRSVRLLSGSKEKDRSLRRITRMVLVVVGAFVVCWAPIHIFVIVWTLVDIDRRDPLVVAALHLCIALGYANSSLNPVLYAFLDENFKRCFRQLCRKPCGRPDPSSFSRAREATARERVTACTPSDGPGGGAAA
Chain of Mu-type opioid receptor (P35372 whole entry): as the sequence (P35372 whole entry, looked up) above
T1 sequence (P41143 whole entry): as the sequence (P41143 whole entry, looked up) above

Broadly, the IC50 is the concentration that gives 50% inhibition. A high value points to lower potency. As to `Cc1cc(O)cc(C)c1C[C@@H](N)C(=O)N1Cc2cc(-c3ccc(F)cc3)ccc2C[C@H]1C(=O)O`, the half-inhibitory concentration (IC50) in test [1] was 81.7 nM; in test [2] it was > 10000 nM.
In general, EC50 refers to the midpoint of the concentration-response curve. Take `COc1c(Br)cc2c(c1Br)CN(C(=O)[C@@H](N)Cc1c(C)cc(O)cc1C)[C@H](C(=O)O)C2`: the 50% inhibitory concentration (IC50) is 1670 nM at Mu-type opioid receptor, 2.5 nM in test [1] and > 10000 nM in test [2]. For the same molecule, in test [3], the Ratio was found to be 505. Further, in test [4], a half-maximal effect (EC50) was put at 28 nM.
On to `COc1ccc2c(c1)CN(C(=O)C(N)Cc1c(C)cc(O)cc1C)[C@H](C(=O)O)C2` (stereo partly drawn), for which the IC50 on Mu-type opioid receptor is 2280 nM; in test [1], 10.9 nM; in test [2] it was 9000 nM. In test [3], the Ratio worked out at 211.
On the same counts, the results for `COc1ccc(-c2cc3c(cc2OC)CN(C(=O)C(N)Cc2c(C)cc(O)cc2C)[C@H](C(=O)O)C3)cc1` (stereo partly drawn) are 4640 nM, 1520 nM, > 10000 nM and 3.1.
On the same counts, the results for `COc1ccc2c(c1)CN(C(=O)[C@@H](N)Cc1c(C)cc(O)cc1C)[C@H](C(=O)O)C2` are 2870 nM, 12.1 nM, 9440 nM and 237.
Regarding `Cc1cc(O)cc(C)c1C[C@H](N)C(=O)N1Cc2ccccc2C[C@H]1C(=O)O` (H-[Dmt]-[Tic]-OH), the half-maximal inhibitory concentration (IC50) came out at 894 nM at Mu-type opioid receptor, 1.6 nM in test [1] and 37500 nM in test [2]. Moreover, in test [3], the Ratio came to 558. This molecule also yielded a Ke in test [5] of 5.3 nM.
Consider `Cc1cc(O)cc(C)c1C[C@@H](N)C(=O)N1Cc2c(cc(Br)c(O)c2Br)C[C@H]1C(=O)O`, for which the IC50 at Mu-type opioid receptor was 8130 nM; in test [1], > 10000 nM.
For `COc1cc2c(cc1-c1ccc(F)cc1)C[C@@H](C(=O)O)N(C(=O)C(N)Cc1c(C)cc(O)cc1C)C2` (stereo partly drawn), the IC50 is 7220 nM on Mu-type opioid receptor, 1160 nM in test [1] and > 10000 nM in test [2]. Further, in test [3], the Ratio is 6.2.
On the same counts, the results for `Cc1cc(O)cc(C)c1CC(N)C(=O)N1Cc2cc(-c3ccsc3)ccc2C[C@H]1C(=O)O` (stereo partly drawn) are 142 nM, 13.5 nM, 2730 nM and 10.5.
Consider `Cc1cc(O)cc(C)c1C[C@H](N)C(=O)N1Cc2c(cc(Br)c(O)c2Br)C[C@H]1C(=O)O`, for which the IC50 was 1240 nM at Mu-type opioid receptor, 1080 nM in test [1] and > 10000 nM in test [2]. In addition, in test [3], the Ratio was found to be 1.1.
The matching figures for `Cc1cc(O)cc(C)c1C[C@@H](N)C(=O)N1Cc2cc(-c3ccccc3)ccc2C[C@H]1C(=O)O`: 1940 nM, 122 nM, > 10000 nM and 15.9.
Turning to `COc1ccc(-c2ccc3c(c2)CN(C(=O)[C@@H](N)Cc2c(C)cc(O)cc2C)[C@H](C(=O)O)C3)cc1`, the IC50 is 1140 nM at Mu-type opioid receptor, 5.8 nM in test [1] and > 10000 nM in test [2]. Further, in test [3], the Ratio was determined as 211.
On the same counts, the results for `Cc1cc(O)cc(C)c1CC(N)C(=O)N1Cc2cc(O)ccc2C[C@H]1C(=O)O` (stereo partly drawn) are 2160 nM, 236 nM, 9290 nM and 9.2.
In the case of `COc1cc2c(cc1-c1ccccc1)C[C@@H](C(=O)O)N(C(=O)C(N)Cc1c(C)cc(O)cc1C)C2` (stereo partly drawn), the half-inhibitory concentration (IC50) on Mu-type opioid receptor is > 10000 nM; in test [1], 2540 nM; in test [2], > 10000 nM.
`Cc1cc(O)cc(C)c1C[C@H](N)C(=O)N1Cc2cc(-c3ccc(F)cc3)ccc2C[C@H]1C(=O)O`: the IC50 turned out to be 587 nM at Mu-type opioid receptor, 3.8 nM in test [1] and 7560 nM in test [2]. The Ratio in test [3] worked out at 155. Also, the Ke in test [5] is 11.5 nM.
The matching figures for `COc1ccc(-c2ccc3c(c2)CN(C(=O)C(N)Cc2c(C)cc(O)cc2C)[C@H](C(=O)O)C3)cc1` (stereo partly drawn): 2650 nM, 4.9 nM, > 10000 nM, 546 and 38.6 nM.
Take `COc1c(Br)cc2c(c1Br)CN(C(=O)[C@H](N)Cc1c(C)cc(O)cc1C)[C@H](C(=O)O)C2`: the figures for the IC50 (on Mu-type opioid receptor; in test [1]) were 8240 nM and 571 nM, respectively. Moreover, the Ratio in test [3] amounted to 14.4.
As to `Cc1cc(O)cc(C)c1C[C@H](N)C(=O)N1Cc2cc(-c3ccccc3)ccc2C[C@H]1C(=O)O`, the IC50 at Mu-type opioid receptor turned out to be 635 nM; in test [1], 13.2 nM; in test [2] it was 5740 nM. The Ratio in test [3] was 48.1.
As for `Cc1cc(O)cc(C)c1CC(N)C(=O)N1Cc2cc(-c3cc4ccccc4o3)ccc2C[C@H]1C(=O)O` (stereo partly drawn), the IC50 on Mu-type opioid receptor was 2440 nM; in test [1], 52.7 nM; in test [2], > 10000 nM.

For the origin of these results see ChEMBL document CHEMBL1132761, “Novel Dmt-Tic dipeptide analogues as selective delta-opioid receptor antagonists” (Bioorg Med Chem Lett, 2000).
